This note sets out measurements from patent US20220195533A1, “ARYL HYDROCARBON RECEPTOR (AHR) ACTIVATION SIGNATURE AND METHODS FOR DETERMINING AHR SIGNALING STATUS” (DEUTSCHES KREBSFORSCHUNGSZENTRUM STIFTUNG DES OFFENTLICHEN …, priority 2019, published 2022).

The test has as its system AHR. The test is described as follows: AHR signature gene set testing in tumor tissue of advanced melanoma patients after immune checkpoint inhibition. To be noted: tumor tissue of advanced melanoma patients after treatment (GSE91061), FIG. 31C. The test is classed as in vivo, human. The source says: The eBayes adjusted moderated t-statistic was applied for differential gene expression using limma (Ritchie, M E, et al. (2015). limma powers differential expression analyses for RNA-sequencing and microarray studies. Nucleic Acids Research 43(7), e47) and limma-trend (Phipson, B, et al. (2016). Robust hyperparameter estimation protects against hypervariable genes and improves power to detect differential expression. Annals of Applied Statistics 10(2), 946-963) or the limma RNA-seq pipeline (Ritchie, M E, et al. (2015). limma powers differential expression analyses for RNA-sequencing and microarray studies. Nucleic Acids Research 43(7), e47). Batch effects, when present, were accounted for in the linear regression. Gene set testing of AHR activation was performed using roast (Wu, D., et al. (2010). ROAST: rotation gene set tests for complex microarray experiments. Bioinformatics 26, 2176-2182).
Using an AHR signature comprising of all the biomarkers in Table 1, allows the detection of AHR modulation caused by both direct and indirect AHR modulators in a cell type and ligand type independent fashion.

With “Nivolumab: immune checkpoint inhibition; indirect modulation of AHR through immunotherapy”, the “modulation of AHR detected with AHR signature of all Table 1 biomarkers” value was “indirect modulation of AHR”.
